Data published in ChEMBL document CHEMBL5058564, “EUbOPEN Chemogenomics Library 2 (Incucyte)” (2022).
Where “and” joins values, the source holds several entries; their conditions need not be identical. Equal values may be shown once.

Assays:
Format in all cases: toxicity, cell-based
[1] = system: HEK-293T; assay: Incucyte cell viability with HEK293T; conditions: human, 10 µM, compound concentration 10 uM
[2] = system: U2OS; assay: Incucyte cell viability with U2OS; conditions: human, 10 µM, compound concentration 10 uM
[3] = system: Fibroblast; assay: Incucyte cell viability with human fibroblast; conditions: 10 µM, compound concentration 10 uM
[4] = 0 h, replicate number 1, timepoint 0 hours
[5] = 0 h, replicate number 2, timepoint 0 hours
[6] = 24 h, replicate number 1, timepoint 24 hours
[7] = 12 h, replicate number 2, timepoint 12 hours
[8] = 6 h, replicate number 2, timepoint 6 hours
[9] = 18 h, replicate number 1, timepoint 18 hours
[10] = 18 h, replicate number 2, timepoint 18 hours
[11] = 24 h, replicate number 2, timepoint 24 hours
[12] = 6 h, replicate number 1, timepoint 6 hours
[13] = 12 h, replicate number 1, timepoint 12 hours
Also: unitless GR value; below 1 slowed growth and below 0 cell loss.

SMILES	Growth Rate [1, 4]	Growth Rate [1, 5]	Growth Rate [1, 6]	Growth Rate [2, 5]	Growth Rate [3, 4]	Growth Rate [3, 5]	Growth Rate [1, 8]	Growth Rate [2, 4]	Growth Rate [2, 9]	Growth Rate [2, 10]	Growth Rate [2, 6]	Growth Rate [2, 11]	Growth Rate [2, 12]	Growth Rate [3, 12]	Growth Rate [3, 8]	Growth Rate [3, 13]	Growth Rate [3, 7]	Growth Rate [3, 9]	Growth Rate [3, 10]	Growth Rate [3, 6]	also measured
Cc1nn(C)c2nc(NNC(=O)Nc3cc(Cl)nc(Cl)c3)cc(C(C)C)c12	0.64	0.57	0.97	-1	0.09	0.58															Growth Rate [2, 7]: 0.96
COCCn1c(C)c(C)s/c1=N\C(=O)C1C(C)(C)C1(C)C	0.71			-1	0.65	0.2	0.77	0.47	1	0.93	0.98	0.97									Growth Rate [1, 7]: 0.76
O=C(O)c1n[nH]c2c1C[C@H]1C[C@@H]21	0.7	0.85	0.7		0.67	0.18 and 0.32	0.86 and 0.89			0.91 and 0.92	0.99	1	-0.58	0.39 and 0.14	0.95 and 0.74	0.55 and 0.57	0.86	0.72 and 0.87	0.89	0.63 and 0.53	Growth Rate [1, 12]: 0.55; Growth Rate [1, 13]: 0.71; Growth Rate [1, 7]: 0.64; Growth Rate [1, 9]: 0.67; Growth Rate [1, 10]: 0.58; Growth Rate [1, 11]: 0.58; Growth Rate [2, 8]: 0.74; Growth Rate [2, 7]: 0.86; Growth Rate [3, 11]: 0.79
Cc1ccc(-c2ccc(F)cc2COc2ccc(CCC(=O)O)cc2)cc1	0.43	0.55		-0.59		0.45		-0.34						0.23		0.58		0.18		0.42	
C(#Cc1cccc(CN2CCOCC2)c1)CCN1CCCCC1	0.61	0.63	0.73	-1				0.35						0.03	0.09	0.14	0.09	0.39	0.23	0.28	Growth Rate [1, 13]: 0.91; Growth Rate [1, 9]: 0.78; Growth Rate [3, 11]: 0.26
Cc1cnc(-c2cc(N3CCN(C(=O)CCS(C)(=O)=O)CC3)ncc2Cl)c(C)c1	0.65	0.96								0.92				0.66	0.05	0.76	0.17	0.94	0.71	0.94	Growth Rate [2, 8]: 0.63
O=C1NC(=O)C(c2ccccc2[N+](=O)[O-])=C1Nc1ccc(O)c(Cl)c1	0.17	0.13		-1	-0.16	0.11		0.02			0.84										Growth Rate [2, 13]: 0.95
CN(C)c1ccnc2sc3c(=O)n(N4CCCCCC4)cnc3c12	0.91	0.47		-1			0.98		0.51	0.91	0.78		0.61	-0.22		-0.14	0.1	-0.36	0.11	-0.42	Growth Rate [2, 13]: 0.54; Growth Rate [3, 11]: -0.22
CSCC[C@H](NC(=O)[C@@H]1CCCN1C(=O)CNC(=O)[C@H](CCCCN)NC(=O)[C@H](Cc1cnc[nH]1)NC(=O)[C@H](CO)NC(=O)[C@H](CC(C)C)NC(=O)[C@H](CCCNC(=N)N)NC(=O)[C@@H]1CCCN1C(=O)[C@H](CCCNC(=N)N)NC(=O)[C@@H](N)CCC(N)=O)C(=O)N1CCC[C@H]1C(=O)N[C@@H](Cc1ccccc1)C(=O)O	0.46	0.65	0.74	-0.88	0.13	0.64				0.91		0.94					0.8			0.88	Growth Rate [1, 9]: 0.97; Growth Rate [2, 8]: 0.73
CCOc1ccc(Cc2nc3cc(C(=O)N(CC)CC)ccc3n2CC2CCCCC2)cc1	0.75	0.57	0.93	-1	0.96		0.53	-0.21		1					0.61		0.58		0.98		Growth Rate [1, 13]: 0.75; Growth Rate [1, 9]: 0.86
CC(C)c1cc(-c2ccc(F)c3ccccc23)nc(N)n1	0.46	0.76		-0.96	-0.03		0.72		0.86	0.79	0.73	0.89	0.62	0.51		0.58		0.4		0.62	Growth Rate [2, 8]: 0.83; Growth Rate [2, 13]: 0.81
O=C1c2c(Br)c(Br)c(Br)c(Br)c2C(=O)N1c1ncc[nH]1	0.24	0.87	0.91	-1	-1	0.94	0.45		0.89	1	0.98		0.46		0.37	0.69		0.62		0.65	Growth Rate [1, 13]: 0.51; Growth Rate [1, 9]: 0.67; Growth Rate [2, 7]: 0.89
COc1ccccc1N1CCN(C[C@@H](C(=O)NC(C)(C)C)c2ccccc2)CC1.Cl.Cl	0.89			-0.77		0.48	0.54		0.77	0.92		1	0.29	0.54	0.96	0.69		1		0.57	Growth Rate [1, 7]: 0.79
N[C@@]1(C(=O)O)CC[C@H]2[C@H](C(=O)O)[C@H]21	0.6	0.94		-1	-0.03	0.85			0.7	1		0.97	0.86	0.5		0.44	0.63	0.57	0.79	0.52	Growth Rate [1, 11]: 0.86; Growth Rate [2, 8]: 0.76; Growth Rate [2, 13]: 0.67; Growth Rate [2, 7]: 0.94; Growth Rate [3, 11]: 0.35
